Laboratory results as given in patent US20050037975A1, “Method for treatment of glutamate related disorders” (priority 1997, published 2005).

Legend:
[1] = system: succinic semi-aldehyde dehydrogenase (SSA DH); experiment: In vitro inactivation of succinic semi-aldehyde dehydrogenase; assay type: biochemical
Procedure: To test whether the protective effect of DETC-MeSO in hyperbaric O2-induced convulsions in mice could be due to inhibition of succinic semi-aldehyde dehydrogenase (SSA DH), mechanistically related to ALDH2, the sensitivity of SSA DH to inactivation by DETC-MeSO was determined. Potentially, inhibition of SSA DH in brain could offset the build up of ammonia known to occur and produce more GABA. In vitro both ALDH2 and SSA DH are inactivated by DETC-MeSO at 47 M-1 s-1 and 300 M-1 s-1, respectively.

mouse liver low Km ALDH = biological target: T1, mouse liver low Km ALDH (Mus musculus, UniProt P47738); experiment: In vivo inhibition of mouse liver aldehyde dehydrogenase
T1 construct: Liver aldehyde dehydrogenase was extracted and assayed as previously described; from tissue; host or cells: liver of treated mice
T1 sequence (P47738 20-519): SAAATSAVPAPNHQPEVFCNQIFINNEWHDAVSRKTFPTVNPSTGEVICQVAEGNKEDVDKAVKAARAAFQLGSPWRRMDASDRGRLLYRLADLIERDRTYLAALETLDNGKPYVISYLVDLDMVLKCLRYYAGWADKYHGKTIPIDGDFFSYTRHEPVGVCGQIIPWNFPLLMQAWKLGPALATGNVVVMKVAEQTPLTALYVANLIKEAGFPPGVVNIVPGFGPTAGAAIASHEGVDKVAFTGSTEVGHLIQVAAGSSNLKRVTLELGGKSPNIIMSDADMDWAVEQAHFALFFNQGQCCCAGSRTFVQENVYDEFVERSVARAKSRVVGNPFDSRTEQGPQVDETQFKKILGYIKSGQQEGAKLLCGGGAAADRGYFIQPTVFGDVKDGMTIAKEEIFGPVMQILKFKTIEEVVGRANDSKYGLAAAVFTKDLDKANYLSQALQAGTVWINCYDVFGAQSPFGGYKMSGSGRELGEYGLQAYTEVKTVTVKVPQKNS
Procedure: Reagents—DETC-MeSO was synthesized by the method of Hart and Faiman (B. W. Hart et al., Biochem. Pharmacol.), 43, 403-406 (1992). Carbamoylated glutathione, S-(N,N-diethylcarbamoyl)glutathione (DETC-GS), was prepared essentially as described by Jin et al. (L. Jin, supra). The structures and purity of DETC-MeSO and DETC-GS were confirmed by 300 MHz NMR and FAB-tandem mass spectrometry. A QE300 NMR spectrometer (General Electric, Fremont, Calif.) and Autospec-Q Tandem Hybrid mass spectrometer (Fiscons/VG Analytical Limited, Manchester, England) were employed for these analyses. Liver aldehyde dehydrogenase was extracted and assayed as previously described (B. W. Hart et al., supra). MetSOX monosodium L-glutamate, glycine, glutathione, and NMDA were purchased from Sigma Chemical Company (St. Louis, Mo.). L-[3-^3H]Glutamate (46 Ci/mmol) was obtained from Amerisham Life Science (Buckinghamshire, England).

brain or liver SSA DH = biological target: T2, brain or liver SSA DH (Mus musculus, UniProt Q8BWF0); experiment: In vivo effect on brain or liver SSA DH levels; details: up to 100 mg/kg i.p.
T2 construct: with no effect on the levels of brain or liver SSA DH; from tissue; host or cells: brain or liver of treated animals
T2 sequence (Q8BWF0 36-523): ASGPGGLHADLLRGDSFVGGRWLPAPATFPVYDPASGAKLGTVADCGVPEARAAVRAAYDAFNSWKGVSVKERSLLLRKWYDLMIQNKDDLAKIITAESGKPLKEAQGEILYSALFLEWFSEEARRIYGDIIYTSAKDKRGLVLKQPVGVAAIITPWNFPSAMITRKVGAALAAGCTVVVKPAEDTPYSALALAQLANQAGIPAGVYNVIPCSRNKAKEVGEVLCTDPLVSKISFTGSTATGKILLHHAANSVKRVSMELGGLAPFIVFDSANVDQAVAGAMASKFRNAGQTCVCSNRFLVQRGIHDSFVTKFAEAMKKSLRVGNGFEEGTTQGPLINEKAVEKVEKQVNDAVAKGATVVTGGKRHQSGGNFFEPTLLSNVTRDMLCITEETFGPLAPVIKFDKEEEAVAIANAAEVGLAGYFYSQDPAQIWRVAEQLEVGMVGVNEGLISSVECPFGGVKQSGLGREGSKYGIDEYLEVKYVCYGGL

[2] = Carbamoylation of glutathione by DETC-MeSO under physiological conditions
From the text: This rate of reaction was approximate an order of magnitude faster than that of the more familiar α-haloketone functionality.

**Q.** What does the source list for `CCN(CC)C(=O)[S+](C)[O-]` (stereo not drawn) [DETC-MeSO, S-Methyl-N,N-Diethylthiolcarbamate Sulfoxide]?
**A.** inactivation rate of SSA DH [1]: 300 M⁻¹ s⁻¹; inactivation of ALDH (mouse liver low Km ALDH; 5.2 mg/kg i.p. in mice, in 1 hour): 80%; effective concentration at its site of action in vivo (mouse liver low Km ALDH; 5.2 mg/kg i.p. in mice, worked out from inactivation rate): about 11 μM; inhibition at 2.6 mg/kg (mouse liver low Km ALDH; mouse, ip, 2.6 mg/kg i.p., read-out: inhibition of mouse liver enzyme (ALDH)): 84%; inhibition at 30 µmol/kg (mouse liver low Km ALDH; mouse, 30 μmol/kg intravenous, mice): 44.9 ± 1%; effect on the levels of brain or liver SSA DH (brain or liver SSA DH): no effect; rate of carbamoylation of the sulfhydryl group of glutathione (GSH) ([2]; 37° C., pH 7): 10 M⁻¹ s⁻¹; conversion to DETC-GS ([2]; GSH 1-6 mM, within 5 minutes): > 95%; DETC-MeSO remaining ([2]; blood, GSH 1 mM, after 5 minutes): less than 5%; DETC-MeSO remaining ([2]; liver, after one minute): less than 3%
